# Entries after “also recorded” stand apart in the source; their conditions may differ.
# What was measured:
# human recombinant PARP1 = target: T1, human recombinant PARP1 (Homo sapiens, UniProt P09874); assay: PARP1 activity by inclusion of α-[32P]-NAD+ in poly(ADP-ribose); format: biochemical; details: in the presence of 1 mM compound; read-out: Residual activity of PARP1
# T1 construct: made in house
# Description: (§1) Since it has previously been shown that nucleoside derivatives can inhibit enzymes of the PARP family, we also checked whether the studied compounds were able to inhibit the enzymes PARP1 and PARP2. […] Thus, when using our compounds, one cannot expect side effects from PARP1/2.
# (§2) Purified human recombinant PARP1/2 [65] and [^32P] NAD^+ [27] were prepared as described earlier. The activity of PARP1/2 was evaluated by the rate of incorporation of the radioactive label into the acid-insoluble reaction product—PAR as described previously.
# human recombinant PARP2 = target: T2, human recombinant PARP2 (Homo sapiens, UniProt Q9UGN5); assay: PARP2 activity by inclusion of α-[32P]-NAD+ in poly(ADP-ribose); format: biochemical; details: in the presence of 1 mM compound; read-out: Residual activity of PARP2
# T2 construct: made in house
# T2 sequence (Q9UGN5 whole entry): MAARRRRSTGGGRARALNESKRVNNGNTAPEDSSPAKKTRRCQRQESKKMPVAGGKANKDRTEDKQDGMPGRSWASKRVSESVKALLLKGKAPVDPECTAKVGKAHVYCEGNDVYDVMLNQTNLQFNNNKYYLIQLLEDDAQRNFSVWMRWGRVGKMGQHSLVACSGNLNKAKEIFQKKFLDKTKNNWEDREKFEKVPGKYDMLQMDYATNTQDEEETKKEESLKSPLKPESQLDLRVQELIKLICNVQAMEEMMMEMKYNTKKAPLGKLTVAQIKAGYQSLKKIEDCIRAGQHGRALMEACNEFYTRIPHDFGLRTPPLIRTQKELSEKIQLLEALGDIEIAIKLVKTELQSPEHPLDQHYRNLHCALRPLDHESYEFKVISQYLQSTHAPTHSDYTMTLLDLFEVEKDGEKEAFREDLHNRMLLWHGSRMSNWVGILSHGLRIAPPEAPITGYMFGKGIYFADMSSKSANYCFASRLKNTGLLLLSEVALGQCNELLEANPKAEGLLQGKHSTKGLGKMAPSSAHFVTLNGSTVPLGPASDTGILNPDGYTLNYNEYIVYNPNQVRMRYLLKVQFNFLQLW
# Description: as §1, §2
# recombinant human Tdp1 = target: T3, recombinant human Tdp1 (Homo sapiens, UniProt Q9NUW8); assay: Steady-state kinetics of the Tdp1 reaction, type of inhibition (Vmax, KM); format: biochemical; details: dependence of Vmax and KM on inhibitor concentration
# T3 construct: made in house
# T3 sequence (Q9NUW8 whole entry): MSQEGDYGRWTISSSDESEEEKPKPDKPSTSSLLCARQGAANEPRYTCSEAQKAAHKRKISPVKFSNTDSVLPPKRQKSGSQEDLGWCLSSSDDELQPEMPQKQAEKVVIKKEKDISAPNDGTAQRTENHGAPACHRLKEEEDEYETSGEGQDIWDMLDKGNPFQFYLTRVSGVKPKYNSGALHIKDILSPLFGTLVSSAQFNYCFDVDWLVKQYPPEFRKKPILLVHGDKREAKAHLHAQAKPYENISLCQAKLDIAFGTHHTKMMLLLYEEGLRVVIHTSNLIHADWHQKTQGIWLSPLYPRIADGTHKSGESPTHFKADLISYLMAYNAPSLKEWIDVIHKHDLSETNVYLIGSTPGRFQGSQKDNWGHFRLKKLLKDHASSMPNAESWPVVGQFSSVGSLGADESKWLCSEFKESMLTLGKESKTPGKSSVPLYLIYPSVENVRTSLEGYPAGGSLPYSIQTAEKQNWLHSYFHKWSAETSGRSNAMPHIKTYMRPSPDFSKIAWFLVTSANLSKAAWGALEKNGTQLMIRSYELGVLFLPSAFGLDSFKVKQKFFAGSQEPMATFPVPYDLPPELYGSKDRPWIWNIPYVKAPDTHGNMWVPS
# Description: Then, the values of the Vmax and KM parameters were calculated from the kinetic curves obtained. The conclusion about the type of inhibition was made based on the dependence type of the calculated parameters on the concentration of the inhibitor. […] Such inhibitors, supposedly, will be more specific inhibitors of Tdp1, because they will bind to the enzyme only in the presence of the enzyme-substrate complex. […] For this reason, this compound needs additional study of its inhibition mechanism by other methods.
# To determine the kinetic parameters: apparent maximum rate of enzymatic reaction (Vmax), Michaelis constant (KM), and possible inhibition mechanism, steady-state kinetic experiments of Tdp1 enzymatic reaction were carried out at […] fixed concentrations of the substrate with various inhibitor concentrations. The standard reaction mixtures (200 μL) contained 56 nM, 96 nM, 163 nM, 277 nM, 470 nM or 800 nM oligonucleotide substrate, testable inhibitor, 1.5 nM recombinant human Tdp1 and reaction buffer components (50 mM Tris-HCl, pH 8.0, 50 mM NaCl, 7 mM β-mercaptoethanol). After the addition of the enzyme, the reaction mixtures were incubated at a constant temperature of 26 °C and measured in a POLARstar OPTIMA fluorimeter, BMG LABTECH, GmbH, to measure fluorescence every 55 s (Ex485/Em520 nm) during the linear phase (data from 0 to 8 minutes). The initial data (kinetic curves) were obtained in three independent experiments and statistically processed in the software OriginPro 8.6.0.
# [1] = target: T4, purified recombinant human Tdp1 (Homo sapiens, UniProt Q9NUW8); assay: Real-time detection of Tdp1 activity (removal of BHQ1 from a 5′-FAM 16-nt oligonucleotide, fluorescence); format: biochemical; details: 1.5 nM Tdp1, 50 nM oligonucleotide, 25 °C, three independent experiments
# T4 construct: made in house
# T4 sequence (Q9NUW8 whole entry): as above
# Description: In this work, four natural nucleosides (1-4) and […] aromatic lipophilic derivatives of purine nucleosides (5a-f, 6a-d) were tested for Tdp1 activity. The used test system was based on the enzyme’s ability to remove Black Hole Quencher 1 (BHQ1) from the 3′ end of a 5′ FAM 16-nt oligonucleotide. As a result, an increase in FAM fluorescence was detected and the obtained kinetic curves were used to calculate the IC50 parameter (the concentration of the inhibitor at which the enzyme activity is reduced by half). We have found potent Tdp1 inhibitors with IC50 in the range from 0.3 to 7 μM (Table 1).
# Purified human recombinant Tdp1 was prepared as described earlier. Real-time detection of Tdp1 activity was reported in our previous work. The approach consists of a fluorescence intensity measurement of the reaction of quencher removal from the fluorophore-quencher coupled DNA oligonucleotide catalyzed by Tdp1 in the presence of the inhibitor (the control samples contained 1% DMSO). The biosensor was single-stranded oligonucleotide (5′-[FAM] AAC GTC AGGGTC TTC C [BHQ]-3′) containing fluorophore at the 5′ end (5,6-FAM) and a Black Hole Quencher 1 (BHQ) at the 3′ end, and was synthesized in the Laboratory of nucleic acid chemistry at the Institute of Chemical Biology and Fundamental Medicine SB RAS, Novosibirsk, Russia. The reactions were incubated at a constant temperature 25 °C in a POLARstar OPTIMA fluorimeter, BMG LABTECH, GmbH, to measure fluorescence every 55 s (Ex485/Em520 nm) during the linear phase (here, the data are from 0 to 8 min). […] The IC50 values were determined using a six-point concentration response curve in three independent experiments and calculated using MARS Data Analysis 2.0 (BMG LABTECH).
# HeLa cells = assay: Effect of compounds on topotecan cytotoxicity (EZ4U test); format: cell-based, human; details: compound 10 μM in combination with Tpc
# Description: (§3) Tdp1 inhibitors are intended to be used in therapeutic cocktails to sensitize tumors to the action of anticancer Top1 poisons. […] To assess the toxicity of the compounds, their effect on the survival of the HeLa cell line (human cervical cancer) was studied using the colorimetric test of metabolic activity of cells EZ4U, which reflects the survival of cells in the presence of the studied compounds. The EZ4U assay is based on the ability of living cells to reduce the colorless tetrazolium salt XTT [sodium 3,3′-{1-(phenylamino)-carbonyl-3,4-tetrazolium) -bis(4-methoxy-6-nitro)-benzene sulfonic acid hydrate] to an orange water-soluble formazan product. This method was used to investigate the intrinsic cytotoxicity of promising inhibitors discovered in the course of this work, as well as the toxicity of their combination with Tpc.
# As already mentioned, we expected to increase the efficacy and/or reduce the dosage of Tpc with Tdp1 inhibitors. To do this, we studied the effect of nucleoside derivatives on Tpc cytotoxicity. […] We attribute this to the probable presence of protein targets other than Tdp1 in the cell.
# (§4) Cytotoxicity of the compounds was examined on human cell lines HeLa using an EZ4U colorimetric test (Biomedica, Vienna, Austria). The HeLa cell line was obtained from the Russian Cell Culture Collection (RCCC) Institute of Cytology RAS, St. Petersburg, Russia. The cells were grown in DMEM/F12 medium (Gibco, Thermo Fisher Scientific, Waltham, MA, USA), with 1x GlutaMAX (Gibco, Thermo Fisher Scientific, Waltham, MA, USA), 50 IU/mL penicillin, 50 μg/mL streptomycin (MP Biomedicals), and in the presence of 10% fetal bovine serum (Biolot, Saint-Petersburg, Russia) in a 5% CO2 atmosphere. Since lipophilic nucleosides are soluble in DMSO, cells were grown in the presence of 1% DMSO in the control wells. After the formation of a 30–50% monolayer, the tested compounds were added to the medium, and the cell culture was monitored for 3 days. The values were normalized to their own control in each case. At least three independent experiments were carried out. The 50% cytotoxic concentration (CC50) was defined as the compound concentration that reduced the cell viability by 50% when compared to the untreated controls. The CC50 value was determined using OriginPro 8.6.0 software (OriginLab, Northampton, MA, USA). The measurements were carried out in three independent experiments.
# [2] = Cell culture cytotoxicity assay (EZ4U colorimetric test); format: cell-based; details: human, HeLa cells
# Description: as §3, §4
# T1 sequence (P09874 whole entry): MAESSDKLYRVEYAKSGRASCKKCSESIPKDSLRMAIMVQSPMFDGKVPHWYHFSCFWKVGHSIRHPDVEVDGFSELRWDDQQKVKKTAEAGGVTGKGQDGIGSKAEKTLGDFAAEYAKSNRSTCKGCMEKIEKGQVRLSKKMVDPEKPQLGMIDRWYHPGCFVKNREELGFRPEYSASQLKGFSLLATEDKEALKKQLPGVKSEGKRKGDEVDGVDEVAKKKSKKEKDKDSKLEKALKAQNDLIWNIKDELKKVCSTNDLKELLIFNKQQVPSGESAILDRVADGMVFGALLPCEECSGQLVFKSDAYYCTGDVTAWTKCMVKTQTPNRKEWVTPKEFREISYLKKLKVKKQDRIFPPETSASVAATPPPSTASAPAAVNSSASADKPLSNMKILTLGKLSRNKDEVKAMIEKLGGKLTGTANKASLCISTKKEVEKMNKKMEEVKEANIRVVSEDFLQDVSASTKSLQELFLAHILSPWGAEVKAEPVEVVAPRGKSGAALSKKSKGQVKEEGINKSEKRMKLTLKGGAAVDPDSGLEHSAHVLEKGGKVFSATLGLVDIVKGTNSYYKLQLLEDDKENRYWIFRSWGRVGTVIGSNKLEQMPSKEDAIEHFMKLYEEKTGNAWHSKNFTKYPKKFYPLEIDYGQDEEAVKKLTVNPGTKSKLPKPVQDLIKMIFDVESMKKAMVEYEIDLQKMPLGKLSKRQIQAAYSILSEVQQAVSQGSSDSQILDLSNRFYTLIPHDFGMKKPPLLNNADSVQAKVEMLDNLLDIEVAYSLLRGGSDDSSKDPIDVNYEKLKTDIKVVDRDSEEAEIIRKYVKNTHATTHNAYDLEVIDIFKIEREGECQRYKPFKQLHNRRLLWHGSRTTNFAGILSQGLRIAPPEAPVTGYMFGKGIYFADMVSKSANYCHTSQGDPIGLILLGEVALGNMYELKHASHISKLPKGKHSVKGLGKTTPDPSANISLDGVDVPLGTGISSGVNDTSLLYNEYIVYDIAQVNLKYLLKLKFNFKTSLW
SMILES,remaining activity at 1000 µM (human recombinant PARP1) [%],remaining activity at 1000 µM (human recombinant PARP2) [%],Type of inhibition of Tdp1 (recombinant human Tdp1),IC50 [1] [nM],Enhancement of Tpc Cytotoxicity by 10 μM Compounds (HeLa cells) [Times],CC50 at 3 days [2] [nM]
O[C@@H]1[C@H](O)[C@@H](COC(c2ccccc2)(c2ccccc2)c2ccccc2)O[C@H]1n1cnc2c(NC(c3ccccc3)(c3ccccc3)c3ccccc3)ncnc21 [compound 5f],100 ± 10,113 ± 18,uncompetitive type of inhibition,300 ± 60,1.7,> 100000
"O=C(OC[C@H]1O[C@@H](n2cnc3c(Cl)nc(F)nc32)[C@H](OC(=O)c2ccccc2)[C@@H]1OC(=O)c1ccccc1)c1ccccc1 [compound 6c, 2-Fluoro-6-chloro-9-(2,3,5-tri-O-benzoyl-β-D-ribofuranosyl)purine]",82 ± 17,80 ± 20,uncompetitive type of inhibition; also recorded: nonlinear dependence,1000 ± 200,6.5,35000 ± 20000
"O=C(OC[C@H]1O[C@@H](n2cnc3c(Cl)nc(Cl)nc32)[C@H](OC(=O)c2ccccc2)[C@@H]1OC(=O)c1ccccc1)c1ccccc1 [compound 6d, 2,6-dichloro-9-(2,3,5-tri-O-benzoyl-β-D-ribofuranosyl)purine]",96 ± 12,86 ± 9,uncompetitive type of inhibition; also recorded: uncompetitive mechanism,820 ± 20,4.8,33000 ± 15000
